The text below walks through data of publication PMC11209699 (ACS Omega, 2024).

Where “and” joins values, the source holds several entries; their conditions need not be identical. Equal values may be shown once. Entries after “also recorded” stand apart in the source; their conditions may differ.

Usually IC50 stands for the point on the concentration scale where inhibition reaches its midpoint. In general, half-life refers to the time needed for the level to fall by half in the phase considered. One may read the Ki as a measure of affinity in units of concentration, obtained from inhibition or displacement.

The subject of data set [1] is H929 cells. The data set is described as follows: CCK-8 cell viability. The class given is cell-based. Conditions: Homo sapiens, NCI-H929, 48 h, read-out: cytotoxicity (IC50) H929.
Data set [2] concerns MV-4–11 cells. The data set is described as follows: CCK-8 cell viability. The class given is cell-based. The note with it: Homo sapiens, MV4-11, 48 h, read-out: cytotoxicity (IC50) MV-4–11.
Data set [3] concerns RS4;11 cells. The data set is described as follows: CCK-8 cell viability. The class given is cell-based. The note with it: Homo sapiens, RS4-11, 48 h, read-out: cytotoxicity (IC50) RS4;11.
The test system of data set [4] is HL-60 cells. The data set is described as follows: CCK-8 cell viability. Format: cell-based. Conditions: Homo sapiens, HL-60, 48 h, read-out: cytotoxicity (IC50) HL-60.
Data set [5] concerns HeLa cells. The data set is described as follows: CCK-8 cell viability. The note with it: Homo sapiens, 48 h, read-out: cytotoxicity (IC50) HeLa. The class given is cell-based.
Data set [6] in a line: CCK-8 cell viability. The class given is cell-based. Conditions: human, HEK293T cells.
Data set [7] has as its target MCL-1 (Homo sapiens, UniProt Q07820). Kind of data set: fluorescence polarization. Conditions: for binding to MCL-1 (in words): tested up to 100 μM.
Data set [8] concerns MV-4–11 cells. The data set is described as follows: kinetics study in cells. Format: in vitro ADME. Conditions: GQN-B37-Me given to MV-4–11 cells at 40 μM, monitored over 8 h.
For data set [9], the target named is BCL-2 (Homo sapiens, UniProt P10415). The data set is described as follows: fluorescence polarization. The note with it: FP assay. In general terms: Fluorescence polarisation rises when a labelled molecule tumbles more slowly, as on binding a larger partner.
Sequence of BCL-2 (P10415 1-207): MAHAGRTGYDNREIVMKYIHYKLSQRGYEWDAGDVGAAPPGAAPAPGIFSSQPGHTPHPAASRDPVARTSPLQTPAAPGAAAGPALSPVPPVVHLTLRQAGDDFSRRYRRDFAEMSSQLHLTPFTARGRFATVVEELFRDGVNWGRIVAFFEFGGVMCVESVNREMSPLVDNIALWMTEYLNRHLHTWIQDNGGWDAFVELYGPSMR
Data set [10] has as its target BCL-xL (Homo sapiens, UniProt Q07817). The data set is described as follows: fluorescence polarization. Conditions: FP assay, tested up to 100 μM.
The test system of data set [11] is MV-4–11 cells. The data set is described as follows: annexin V and PI double-staining flow cytometry. The class given is cell-based. Conditions: 24 h.
For data set [12], the system named is MV-4–11 xenograft mice. Kind of data set: in vivo antitumor study, MV-4–11 xenograft mouse model. Conditions: for effect on body weight after 20 days (in words): 90% confidence level vs vehicle.
The subject of data set [13] is PARP and caspase-3 in H929 cells. The data set is described as follows: Western blot of PARP and caspase-3 cleavage. The class given is cell-based. Conditions: 5 to 40 μM, 24 h. For orientation: Immunoblotting shows a protein as a band on a membrane.
Data set [14] deals with MCL-1/BIM interaction in H929 cells (Homo sapiens, UniProt Q07820). Kind of data set: coimmunoprecipitation. Format: cell-based. The note with it: 10 μM, 10 h.
Sequence of MCL-1/BIM interaction in H929 cells (Q07820 whole entry): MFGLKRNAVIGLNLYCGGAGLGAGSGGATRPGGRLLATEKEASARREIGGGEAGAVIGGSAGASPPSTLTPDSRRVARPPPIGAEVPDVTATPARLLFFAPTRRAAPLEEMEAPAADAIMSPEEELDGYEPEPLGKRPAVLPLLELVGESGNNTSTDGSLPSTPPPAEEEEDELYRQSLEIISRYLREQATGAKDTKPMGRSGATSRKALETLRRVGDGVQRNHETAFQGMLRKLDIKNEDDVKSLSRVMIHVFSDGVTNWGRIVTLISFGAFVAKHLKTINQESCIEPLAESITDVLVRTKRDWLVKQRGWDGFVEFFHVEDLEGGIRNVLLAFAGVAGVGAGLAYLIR
A short description of data set [15]: stability in GSH. The class given is in vitro ADME. The note with it: exposure to GSH for up to 2 h.
Data set [16] is described as follows: stability in liver microsomes. The class given is in vitro ADME. Conditions: human. A general note: Microsomes from liver hold many membrane-bound enzymes, among them those of drug oxidation.
The nature of data set [17]: stability in liver microsomes. Format: in vitro ADME. The note with it: dog, pooled dog liver microsomes.
Data set [18] is described as follows: stability in liver microsomes. The class given is in vitro ADME. Conditions: rat, pooled rat liver microsomes.
Data set [19] in a line: stability in liver microsomes. The class given is in vitro ADME. Conditions: monkey, pooled monkey liver microsomes.
Data set [20] concerns MV-4–11 xenograft mice. The class given is in vivo, mouse. The note with it: after 20 days treatment.

Sequence of MCL-1 (Q07820 152-327): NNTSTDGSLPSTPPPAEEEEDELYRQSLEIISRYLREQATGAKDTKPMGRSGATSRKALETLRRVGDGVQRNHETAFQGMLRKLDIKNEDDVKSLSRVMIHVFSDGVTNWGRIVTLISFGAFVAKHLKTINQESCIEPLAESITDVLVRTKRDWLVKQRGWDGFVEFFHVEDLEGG
Sequence of BCL-xL (Q07817 45-233): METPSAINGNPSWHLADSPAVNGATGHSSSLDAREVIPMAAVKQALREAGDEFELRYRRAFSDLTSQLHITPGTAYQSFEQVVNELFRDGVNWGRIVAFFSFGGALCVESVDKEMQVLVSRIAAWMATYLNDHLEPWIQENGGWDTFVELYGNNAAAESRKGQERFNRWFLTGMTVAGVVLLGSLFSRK

As for `Nc1ccc(-c2nn(-c3cccc(Cl)c3)cc2/C=C/C(=O)N[C@@H](Cc2c[nH]c3ccccc23)C(=O)O)cc1` [GQN-B35-E, (E)-(3-(3-(4-Aminophenyl)-1-(3-chlorophenyl)-1H-pyrazol-4-yl)acryloyl)-L-tryptophan], the IC50 in data set [1], in [2], in data set [3], in data set [4] and in data set [5] was greater than 50 µM each time. This compound also had an IC50 at 48 h in data set [6] greater than 20 µM.
As for `COC(=O)[C@H](Cc1c[nH]c2ccccc12)NC(=O)/C=C/c1cn(-c2ccccc2)nc1-c1ccc2ccccc2c1` [GQN-B18-Me, Methyl-(E)-(3-(3-(naphthalen-2-yl)-1-phenyl-1H-pyrazol-4-yl)acryloyl)-L-tryptophanate], the IC50 in data set [1] is 7.97 ± 1.01 µM; in data set [2], greater than 20 µM; in data set [3], greater than 20 µM; in [4], greater than 20 µM; in data set [5] it was greater than 20 µM. In data set [6], this compound had an IC50 at 48 h greater than 20 µM. For the same compound, the “binding to MCL-1 (in words)” value in [7] (FP assay) is reported as “totally abolished; also recorded: complete loss of binding”.
As for `COC(=O)[C@H](Cc1c[nH]c2ccccc12)NC(=O)/C=C/c1cn(-c2cccc(Cl)c2)nc1-c1ccc(N)cc1` [GQN-B35-Me, Methyl-(E)-(3-(3-(4-aminophenyl)-1-(3-chlorophenyl)-1H-pyrazol-4-yl)acryloyl)-L-tryptophanate], the 50% inhibitory concentration (IC50) in data set [1] is 3.89 ± 0.07 µM; in data set [2], 20.52 ± 0.12 µM; in [3], greater than 20 µM; in data set [4] it was greater than 20 µM; in [5], greater than 50 µM. In addition, the IC50 at 48 h in data set [6] was greater than 20 µM.
As to `COC(=O)[C@H](Cc1c[nH]c2ccccc12)NC(=O)/C=C/c1cn(-c2cccc(Cl)c2)nc1-c1ccc(N2CCOCC2)cc1` [GQN-B36-Me, Methyl-(E)-(3-(1-(3-chlorophenyl)-3-(4-morpholinophenyl)-1H-pyrazol-4-yl)acryloyl)-L-tryptophanate], the IC50 in [1] is greater than 20 µM; in data set [2], greater than 20 µM; in data set [3], greater than 20 µM; in data set [4], greater than 20 µM; in [5] it was greater than 50 µM. The 50% inhibitory concentration (IC50) at 48 h in data set [6] is greater than 20 µM.
For `O=C(/C=C/c1cn(-c2cccc(Cl)c2)nc1-c1ccc(O)cc1)N[C@@H](Cc1c[nH]c2ccccc12)C(=O)O` [GQN-B37-E, (E)-(3-(1-(3-Chlorophenyl)-3-(4-hydroxyphenyl)-1H-pyrazol-4-yl)acryloyl)-L-tryptophan], the concentration for half-maximal inhibition (IC50) in data set [1], in data set [2], in data set [3], in [4] and in data set [5] was greater than 50 µM in each case. Also, in data set [6], the half-maximal inhibitory concentration (IC50) at 48 h was greater than 20 µM. Besides, the “time at which intracellular GQN-B37-E reached a peak” value in data set [8] came to 3 h. Moreover, the “ligand efficiency (LE)” value in data set [7] (binding energy divided by the number of heavy atoms, MCL-1) was found to be 0.22 kcal/mol. Besides, in [9] (tested up to 100 μM), the “binding to BCL-2 (in words)” value is reported as “without apparent binding”. In addition, the “binding to BCL-XL (in words)” value in data set [10] is listed as “without apparent binding”.
Regarding `O=C(/C=C/c1cn(-c2cccc(Cl)c2)nc1-c1ccc(C2CCCCC2)cc1)N[C@@H](Cc1c[nH]c2ccccc12)C(=O)O` [GQN-B33-E, (E)-(3-(1-(3-Chlorophenyl)-3-(4-cyclohexylphenyl)-1H-pyrazol-4-yl)acryloyl)-L-tryptophan], the concentration for half-maximal inhibition (IC50) in [1] is greater than 50 µM; in data set [2], greater than 20 µM; in [3] it was greater than 20 µM; in [4], greater than 50 µM; in data set [5], greater than 50 µM. Besides, the half-maximal inhibitory concentration (IC50) at 48 h in data set [6] was greater than 20 µM.
With `COC(=O)[C@H](Cc1c[nH]c2ccccc12)NC(=O)/C=C/c1cn(-c2cccc(Cl)c2)nc1-c1ccc(C2CCCCC2)cc1` [GQN-B33-Me, Methyl-(E)-(3-(1-(3-chlorophenyl)-3-(4-cyclohexylphenyl)-1H-pyrazol-4-yl)acryloyl)-L-tryptophanate], the IC50 is 4.64 ± 0.01 µM in [1]; greater than 20 µM in [2]; greater than 20 µM in data set [3]; greater than 50 µM in [4]; greater than 50 µM in data set [5]. The compound also gave an IC50 at 48 h in data set [6] greater than 20 µM.
As for `Cc1c2c(nn1C)CSCc1cc(n(C)n1)CSc1cc(c3ccccc3c1)OCCCc1c(C(=O)O)n(C)c3c-2c(Cl)ccc13` [AZD5991, reference compound], the figures for the IC50 in data set [1] and in [2] were 0.05 ± 0.01 µM and less than 0.01 µM, respectively. Moreover, in data set [6], the IC50 at 48 h is greater than 20 µM. Further, the “cells in quadrant Q3-2 (late apoptosis, annexin V (+) and PI (+))” value in data set [11] (1 μM, MV-4–11 cells) is listed as roughly 75%. Moreover, the “tumor growth inhibition on day 20” value in data set [12] (10 mg/kg i.p. every 2 days for 20 days) is reported as 56%. Also, the “effect on body weight after 20 days (in words)” value in [12] (10 mg/kg i.p. every 2 days) is listed as “caused significant body weight loss”.
As to `O=C(/C=C/c1cn(-c2cccc(Cl)c2)nc1-c1ccc(N2CCOCC2)cc1)N[C@@H](Cc1c[nH]c2ccccc12)C(=O)O` [GQN-B36-E, (E)-(3-(1-(3-Chlorophenyl)-3-(4-morpholinophenyl)-1H-pyrazol-4-yl)acryloyl)-L-tryptophan], the concentration for half-maximal inhibition (IC50) in [1], in [2], in data set [3], in data set [4] and in data set [5] was greater than 50 µM each time. The IC50 at 48 h in [6] was greater than 20 µM.
In the case of `CC1(C)CCC(CN2CCN(c3ccc(C(=O)NS(=O)(=O)c4ccc(NCC5CCOCC5)c([N+](=O)[O-])c4)c(Oc4cnc5[nH]ccc5c4)c3)CC2)=C(c2ccc(Cl)cc2)C1` [ABT-199, reference compound], in data set [7] (FP assay), the “binding to MCL-1 (in words)” value was “no obvious binding”.
`COC(=O)[C@H](Cc1c[nH]c2ccccc12)NC(=O)/C=C/c1cn(-c2cccc(Cl)c2)nc1-c1ccc(O)cc1` [GQN-B37-Me, Methyl-(E)-(3-(1-(3-chlorophenyl)-3-(4-hydroxyphenyl)-1H-pyrazol-4-yl)acryloyl)-L-tryptophanate]: the half-inhibitory concentration (IC50) in data set [1] is 3.71 ± 0.33 µM; in data set [2] it was 5.57 ± 0.09 µM; in [3], 15.9 ± 0.98 µM; in data set [4], greater than 20 µM; in [5], greater than 20 µM. In addition, in data set [6], the IC50 at 48 h is greater than 20 µM. The “induction of late apoptosis (in words)” value in data set [11] (doses ranging from 1 to 40 μM) is “induced late apoptosis in a clear dose-dependent manner”. Moreover, in [13], the “cleavage of full-length PARP (116 to 89 kDa)” value is given as “dose-dependent cleavage”. For the same compound, in [14], the “disruption of the MCL-1/BIM interaction” value was “disrupts the MCL-1/BIM interaction considerably”. Also, the “tumor growth inhibition on day 20” value was found to be 30% in data set [12] (12.5 mg/kg i.p. every 2 days for 20 days) and 43% in data set [12] (50 mg/kg i.p. every 2 days for 20 days). Moreover, the “effect on body weight after 20 days (in words)” value in data set [12] (12.5 mg/kg i.p. every 2 days) is “did not cause significant body weight loss”; in data set [12] (50 mg/kg i.p. every 2 days), “affected body weight”. Moreover, in data set [15], the “stability following incubation with GSH (in words)” value is on record as “basically intact”. Moreover, the half-life at 1.4 μM in data set [16] was 0.77 h; in [17], 1.93 h; in data set [18], 1.92 h; in [19], 0.58 h. Also, the “lesions in liver, kidney and heart (HE staining)” value in data set [20] (12.5 and 50 mg/kg) is on record as “no evidence of lesions”. Also, the “necrosis of tumor tissues (HE staining)” value in data set [20] (12.5 and 50 mg/kg) is given as “dose-dependent necrosis of tumor tissues”. In addition, in data set [20] (compared to the blank group), the “level of proliferation in tumor tissues (Ki-67)” value was “significantly reduced”. The “binding to MCL-1 (in words)” value in [7] (FP assay) is on record as “complete loss of binding”.
As for `O=C(/C=C\c1cn(-c2ccccc2)nc1-c1ccc2ccccc2c1)Nc1ccc(C(=O)O)cc1` [LC126, (Z)-4-(3-(3-(Naphthalen-2-yl)-1-phenyl-1H-pyrazol-4-yl)acrylamido)benzoic Acid], the inhibition constant (Ki) was 13 µM and ~10 µM in [7] (Ki for MCL-1 (text and Figure 2), FP assay); 10 µM and ~10 µM in data set [9] (Ki for BCL-2 (text and Figure 2)).
In the case of `O=C(/C=C/c1cn(-c2ccccc2)nc1-c1ccc2ccccc2c1)N[C@@H](Cc1c[nH]c2ccccc12)C(=O)O` [GQN-B18-E, (E)-(3-(3-(Naphthalen-2-yl)-1-phenyl-1H-pyrazol-4-yl)acryloyl)-L-tryptophan], the IC50 in data set [1] was greater than 50 µM; in data set [2], greater than 50 µM; in data set [3], greater than 20 µM; in data set [4], greater than 20 µM; in [5], greater than 50 µM. In addition, the IC50 at 48 h in data set [6] is greater than 20 µM.
